# Assay results from patent US20140235877A1, “COMPOUNDS, METHODS OF PREPARATION AND USE THEREOF FOR TREATING CANCER” (Hong Kong Baptist University, priority 2013, published 2014).
# Like-named read-outs stand apart in the source and are kept apart here.
# How the values were obtained:
# AGS = experiment: MTT cell viability assay, AGS; conditions: Homo sapiens, 72 h, read-out: Cytotoxicity Data IC50 (μM)
# Procedure: (§2) All test samples are dissolved in dimethyl sulfoxide (DMSO) to make stock solutions and further diluted in culture medium upon assay. Human cancer cell lines including U87, MDA-MB-231, AGS and HepG2 are cultured in RPMI 1640 or DMEM or DMEM/F12 medium, containing 10% fetal bovine serum. All cell lines are maintained at 37° C. in a humidified environment containing 5% CO2. To determine the effects of the compounds on cell viability, cell number is quantified using a standard colorimetric MTT assay. Cells are placed in a 96-well plate (5×10^3 cells/well) and allowed to attach overnight. Cells are treated with 5, 10, 20, 40 μM of each compound in culture medium for 72 h, respectively. Then, culture media are added with 20 μL of MTT (5 mg/mL stock in PBS) per well and incubated for 4 h at 37° C. Finally, culture media are discarded and 150 μL of DMSO is added to each well to dissolve the purple formazan crystals. Absorbance of the solution is measured using microplate reader spectrophotometer (Bio-Rad Laboratories, Inc., Hercules, Calif.), at a wavelength of 490 nm. Absorbance of untreated cells in medium (negative control) is 100%. Curcumin and paclitaxel are used as the positive control.
# HepG2 = experiment: MTT cell viability assay, HepG2; assay type: cell-based; conditions: Homo sapiens; for IC50: HepG2, MTT
# Excerpt: (§1) Curcumin and paclitaxel are used as the positive control.
# U87 = experiment: MTT cell viability assay, U87; conditions: Homo sapiens, U-87 MG, 72 h, read-out: Cytotoxicity Data IC50 (μM)
# Procedure: as §2
# MDA-MB-231 = experiment: MTT cell viability assay, MDA-MB-231; assay type: cell-based; conditions: Homo sapiens; MDA-MB-231, MTT, 72 h; read-out: Cytotoxicity Data IC50
# Excerpt: as §1
# [1] = system: normal liver cells immortalized MIHA; experiment: MTT cytotoxicity assay on normal liver cells immortalized MIHA; assay type: cell-based, human; conditions: for Survival rate (%): MTT, 72 h
# Procedure: The cytotoxicity of Compound A to normal liver cells immortalized MIHA is tested with MTT assay.
# For MTT assay, 10 μL MTT solution is added into each well of a 96-well plate. After 2 h incubation at 37° C., 100 μL 10% SDS solution with 10 mM HCl is added to dissolve the purple crystals. After 24 h incubation, the optical density (OD) readings at 595 nm are measured using a Perkin-Elmer Victor plate reader. The values of IC50 are determined using the method described in the cited literatures with some modifications. To determine the IC50 value of a compound in a cell line, the growth inhibitory effect of Compound A at different concentrations is measured by MTT assay. For each tested concentration, 3000 cells suspended in 100 μL culture medium are seeded in each well of a 96-well plate. The well containing 100 μL culture medium without cells is used as a blank. After an overnight culture, Compound A at the designed concentration is added. The OD values of the control group at 0 h (C0) and 72 h (C72) together with the compound treated groups at 72 h (T72) from the MTT assay are measured using the Perkin-Elmer Victor plate reader. The survival rates are calculated using the formula (T72−C0)/(C72−C0)×100%. The inhibition rates are calculated using the following formula [1−(T72−C0)/(C72−C0)]×100% and plotted against logarithmic concentrations by sigmoidal fit. IC50 is defined as the concentration of a compound inhibiting 50% of cell growth. Each IC50 test is performed in triplicate and repeated at least three times.
smiles,measurement,setting,value
COc1c(OC)c(O)c2c(=O)c3c(CC=C(C)C)c(CC=C(C)C)c(O)c(O)c3oc2c1CC=C(C)C [Compound B],IC50,AGS,31.1 µM
same,IC50,"HepG2; 72 h, read-out: Cytotoxicity Data IC50",20.3 µM
same,IC50,U87,55.3 µM
same,IC50,MDA-MB-231,70.5 µM
CC(=O)O[C@H]1C(=O)[C@@]2(C)[C@H]([C@H](OC(=O)c3ccccc3)[C@]3(O)C[C@H](OC(=O)[C@H](O)[C@@H](NC(=O)c4ccccc4)c4ccccc4)C(C)=C1C3(C)C)[C@]1(OC(C)=O)CO[C@@H]1C[C@@H]2O [Paclitaxel],IC50,AGS,23.1 µM
same,IC50,U87,285 µM
COc1cc(/C=C/C(=O)CC(=O)/C=C/c2ccc(O)c(OC)c2)ccc1O [Curcumin],IC50,AGS,4.38 µM
same,IC50,U87,20.8 µM
same,IC50,MDA-MB-231,3.76 µM
"COc1c(O)c(O)c2c(=O)c3c(CC=C(C)C)c(CC=C(C)C)c(O)c(O)c3oc2c1CC=C(C)C [Compound A, 1,2,5,6-tetrahydroxy-3-methoxy-4,7,8-tri(3-methylbut-2-enyl)-xanthone]",Survival rate (%),[1]; compound A 5 μg/mL,101.7881%
same,Survival rate (%),[1]; compound A 10 μg/mL,85.45%
same,Survival rate (%),[1]; compound A 20 μg/mL,85.89%
same,Survival rate (%),[1]; compound A 40 μg/mL,68.01%
same,half toxic concentration TC50,[1]; from survival rate curve (FIG. 1),> 40 µg/mL
same,toxicity on normal cells,[1]; result in words,low toxicity
same,IC50,HepG2; read-out: IC50 on HepG2 cells growth,5.3 µg/mL
same,inhibition at 0.8 µg/mL,"HepG2; HepG2, compound A 0.8 μg/mL, MTT, read-out: Inhibition rate %",7.79%
same,inhibition at 1.6 µg/mL,"HepG2; HepG2, compound A 1.6 μg/mL, MTT, read-out: Inhibition rate %",8.16%
same,inhibition at 3.125 µg/mL,"HepG2; HepG2, compound A 3.125 μg/mL, MTT, read-out: Inhibition rate %",15%
same,inhibition at 6.25 µg/mL,"HepG2; HepG2, compound A 6.25 μg/mL, MTT, read-out: Inhibition rate %",59.2%
same,inhibition at 12.5 µg/mL,"HepG2; HepG2, compound A 12.5 μg/mL, MTT, read-out: Inhibition rate %",75.6%
same,inhibition at 25 µg/mL,"HepG2; HepG2, compound A 25 μg/mL, MTT, read-out: Inhibition rate %",76.6%
same,inhibition at 50 µg/mL,"HepG2; HepG2, compound A 50 μg/mL, MTT, read-out: Inhibition rate %",69.3%
same,inhibition at 100 µg/mL,"HepG2; HepG2, compound A 100 μg/mL, MTT, read-out: Inhibition rate %",74.3%
